Non-standard residues stand in square brackets, D forms with d. No end group written: not given here. pS = N[C@@H](COP(=O)(O)O)C(=O)O

One assay has as its system CK1δ ΔC. The assay can be described thus: NMR kinase assay monitoring priming phosphorylation at S662. The format is biochemical, human. Conditions: 3-hr real-time NMR kinase assay, 0.2 mM 15N-FASP, 2.5 mM ATP, 1 µM CK1δ ΔC, 25°C, SOFAST HMQC.
For assay [1], the target named is T1, Human CK1δ catalytic domain (residues 1–294) (human, UniProt P48730 1-294).
T1 sequence: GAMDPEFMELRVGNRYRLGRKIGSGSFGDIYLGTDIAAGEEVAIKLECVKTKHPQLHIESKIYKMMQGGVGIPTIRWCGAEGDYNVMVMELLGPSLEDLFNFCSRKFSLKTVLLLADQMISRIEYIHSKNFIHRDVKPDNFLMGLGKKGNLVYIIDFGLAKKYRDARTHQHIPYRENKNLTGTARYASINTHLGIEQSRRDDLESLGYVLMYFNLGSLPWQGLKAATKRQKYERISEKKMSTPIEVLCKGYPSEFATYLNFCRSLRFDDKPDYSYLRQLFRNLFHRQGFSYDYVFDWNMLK
In words: crystal structure.

For the molecule “WT FASP: wild-type recombinant FASP peptide (residues 645–687) from human PER2 (GAMDPEFWRKKKTGVGTHLTSLALPGKAESVASLTSQCSYSSTIVHVGDKKPQPE; left off: His-NusA, N-terminal, cleaved)”, the “fraction of primed FASP (pS662), completion of priming” value in the assay on CK1δ ΔC was “approximately 50%”.
For the molecule GKAE[pS]VA[pS]LT[pS]QC[pS]YA [human PER2 4pFASP peptide], the binding result in assay [1] is “binds”.

Values taken from article PMC11684667 (Molecular cell, 2023).
